The target in one experiment is Ku70–Ku80 (Homo sapiens, UniProt P12956+P13010). The experiment in a line: nano Differential Scanning Fluorometry. In kind it is binding. Particulars: 0 to 25 μM ligand. Background: In DSF a fluorescence change marks the thermal transition of the protein.
The target in the next experiment is Ku70/80 (Homo sapiens, UniProt P12956+P13010). The experiment in a line: Ku–DNA binding EMSA. As to conditions: for IC50: Ku70/80 (IC50), purified Ku70/80, direct DNA binding activity by EMSA. (In EMSA bound probe runs differently from free probe, usually more slowly.)
Sequence of Ku70/80 (P12956 whole entry): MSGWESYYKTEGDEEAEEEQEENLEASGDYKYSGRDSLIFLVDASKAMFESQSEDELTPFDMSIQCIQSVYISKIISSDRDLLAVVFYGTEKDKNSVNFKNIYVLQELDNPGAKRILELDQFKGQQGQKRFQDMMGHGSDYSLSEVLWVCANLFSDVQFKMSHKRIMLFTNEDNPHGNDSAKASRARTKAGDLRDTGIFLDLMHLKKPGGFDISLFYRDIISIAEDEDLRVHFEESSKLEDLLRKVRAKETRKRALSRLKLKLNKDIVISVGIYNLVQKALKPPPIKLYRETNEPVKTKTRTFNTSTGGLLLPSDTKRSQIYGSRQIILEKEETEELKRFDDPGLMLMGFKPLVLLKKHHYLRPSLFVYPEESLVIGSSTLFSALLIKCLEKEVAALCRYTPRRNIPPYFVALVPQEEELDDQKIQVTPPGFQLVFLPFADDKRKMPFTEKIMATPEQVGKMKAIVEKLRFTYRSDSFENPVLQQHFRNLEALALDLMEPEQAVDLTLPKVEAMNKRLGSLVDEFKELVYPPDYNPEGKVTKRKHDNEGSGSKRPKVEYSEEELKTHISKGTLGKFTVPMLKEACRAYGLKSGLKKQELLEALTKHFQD
Sequence of Ku70/80 (P13010 whole entry): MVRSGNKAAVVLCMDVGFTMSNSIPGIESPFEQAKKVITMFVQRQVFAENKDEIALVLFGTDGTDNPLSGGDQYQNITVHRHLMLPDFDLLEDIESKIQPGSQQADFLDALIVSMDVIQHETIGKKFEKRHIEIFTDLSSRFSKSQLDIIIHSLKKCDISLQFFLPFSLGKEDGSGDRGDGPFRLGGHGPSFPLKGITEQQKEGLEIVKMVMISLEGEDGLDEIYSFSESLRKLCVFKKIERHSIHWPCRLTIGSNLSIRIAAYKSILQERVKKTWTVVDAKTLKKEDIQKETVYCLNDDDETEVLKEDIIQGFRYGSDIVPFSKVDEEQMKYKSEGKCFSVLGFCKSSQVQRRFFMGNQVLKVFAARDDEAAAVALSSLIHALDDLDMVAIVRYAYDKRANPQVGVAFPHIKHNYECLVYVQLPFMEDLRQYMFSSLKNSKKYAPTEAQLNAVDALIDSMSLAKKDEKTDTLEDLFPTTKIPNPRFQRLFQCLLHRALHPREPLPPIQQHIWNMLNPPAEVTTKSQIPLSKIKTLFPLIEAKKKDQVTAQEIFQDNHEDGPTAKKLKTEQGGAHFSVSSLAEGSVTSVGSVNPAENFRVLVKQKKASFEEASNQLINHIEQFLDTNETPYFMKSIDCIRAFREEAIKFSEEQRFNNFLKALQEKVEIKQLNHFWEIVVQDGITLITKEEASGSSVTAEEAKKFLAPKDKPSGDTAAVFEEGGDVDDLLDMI
Another experiment deals with DNA-PK (Homo sapiens, UniProt P12956+P13010). Kind of experiment: DNA-PK phosphoryl-transferase catalytic. It counts as biochemical.
Sequence of DNA-PK (P12956 whole entry): as the sequence (P12956 whole entry) above
Sequence of DNA-PK (P13010 whole entry): as the sequence (P13010 whole entry) above
The subject of the next experiment is Ku70/80 protein. Particulars: gel-based TSA; cited from earlier work.
Another experiment concerns p53 phosphorylation. Particulars: through p53 phosphorylation, ATM pathway activation; cited from earlier work.
A further experiment has as its system NHEJ. As to conditions: earlier report; cited from earlier work.

The structures appear in SMILES notation.

Sequence of Ku70–Ku80 (P12956 whole entry): as the sequence (P12956 whole entry) above
Sequence of Ku70–Ku80 (P13010 whole entry): as the sequence (P13010 whole entry) above

For `COc1cccc(NC(=O)c2cc(-c3ccc(CC4C(=O)N(c5cccc(C(=O)O)c5)N=C4C)o3)ccc2Cl)c1` (centres unmarked) [53 (149), 3-(4-((5-(4-chloro-3-((3-methoxyphenyl)carbamoyl)phenyl)furan-2-yl)methyl)-3-methyl-5-oxo-4,5-dihydro-1H-pyrazol-1-yl)benzoic acid], the “shift in thermal stability (qualitative)” value at Ku70–Ku80 was “concentration-dependent induction of a shift in thermal stability”.
As a reminder, the IC50 is the concentration at which inhibition is half-maximal. Turning to `COc1cccc(NC(=O)c2cc(-c3ccc(/C=C4\C(=O)N(c5ccc(S(N)(=O)=O)cc5)N=C4C)o3)ccc2Cl)c1` [Compound 67, (Z)-2-Chloro-N-(3-methoxyphenyl)-5-(5-((3-methyl-5-oxo-1-(4-sulfamoylphenyl)-1,5-dihydro-4H-pyrazol-4-ylidene)methyl)furan-2-yl)benzamide], the results for the IC50 on Ku70/80 and on DNA-PK were 11300 ± 2160 nM and 1410 ± 270 nM, respectively.
Regarding `CC1=NN(c2ccc(S(N)(=O)=O)cc2)C(=O)/C1=C\c1ccc(-c2ccc(Cl)c(C(=O)NCc3ccc(F)cc3)c2)o1` [Compound 69, (Z)-2-Chloro-N-(4-fluorobenzyl)-5-(5-((3-methyl-5-oxo-1-(4-sulfamoylphenyl)-1,5-dihydro-4H-pyrazol-4-ylidene)methyl)furan-2-yl)benzamide], the IC50 on Ku70/80 amounted to 20700 ± 1840 nM; against DNA-PK it was 1530 ± 220 nM.
On to `COc1cccc(NC(=O)c2cc(-c3ccc(CC4C(=O)N(c5ccc(S(N)(=O)=O)cc5)N=C4C)o3)ccc2Cl)c1` (centres unmarked) [Compound 70, 2-chloro-N-(3-methoxyphenyl)-5-(5-((3-methyl-5-oxo-1-(4-sulfamoylphenyl)-4,5-dihydro-1H-pyrazol-4-yl)methyl)furan-2-yl)benzamide], for which the IC50 was 7860 ± 4400 nM at Ku70/80 and 570 ± 120 nM at DNA-PK. Besides, the “increase in Ku inhibitory activity” value on Ku70/80 (compared with compound 67) is 1–2.5 fold. For the same compound, the “increase in DNA-PK activity” value at DNA-PK (compared with compound 67) was 1–2.5 fold.
With `COc1cccc(NC(=O)c2cc(-c3ccc(/C=C4\C(=O)N(c5cccc(-c6nnn[nH]6)c5)N=C4C)o3)ccc2Cl)c1` [Compound 75, (Z)-5-(5-((1-(3-(1H-tetrazol-5-yl)phenyl)-3-methyl-5-oxo-1,5-dihydro-4H-pyrazol-4-ylidene)methyl)furan-2-yl)-2-chloro-N-(3-methoxyphenyl)benzamide], the IC50 stood at 3510 ± 1810 nM on Ku70/80 and 980 ± 520 nM at DNA-PK.
Turning to `COc1cccc(NC(=O)c2cc(-c3ccc(CC4C(=O)N(c5cccc(-c6nnn[nH]6)c5)N=C4C)o3)ccc2Cl)c1` (centres unmarked) [Compound 76 (245), 5-(5-((1-(3-(1H-tetrazol-5-yl)phenyl)-3-methyl-5-oxo-4,5-dihydro-1H-pyrazol-4-yl)methyl)furan-2-yl)-2-chloro-N-(3-methoxyphenyl)benzamide], the “direct interaction with Ku70/80 protein” value with Ku70/80 protein is given as “directly interacts with the Ku70/80 protein”. The “potentiation of cellular effects of bleomycin and IR” value in the experiment with p53 phosphorylation is “potentiates the cellular effects of bleomycin and IR”. For the same compound, the “effect in CRISPR gene-editing model” value with NHEJ is “inhibiting NHEJ and activating homologous recombination to increase the efficiency of gene insertion”.

The values above are taken from publication PMC12452633 (RSC Medicinal Chemistry, 2025).
